Patent EP4678638A1, “NEW E3 UBIQUITIN LIGASE LIGAND, PROTEIN DEGRADATION AGENT AND USE THEREOF” (priority 2023, dated 2024)

How the values were obtained:
[1] = molecular target: T1, human Cereblon WT GST-tagged protein (Homo sapiens, UniProt Q96SW2); test: CRBN binding, HTRF (CEREBLON BINDING kit); settings: Table II-2, CRBN binding screening, HTRF; for inhibition at 0.5 µM: read-out: Inhibition rate (%) at 0.5µM; for inhibition at 2 µM: read-out: Inhibition rate (%) at 2 µM
T1 construct: purchased CISBIO 64BDCRBNPEH
Procedure, shortened: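 After 3 h at room temperature, emission at 665 and 620 nm was measured in a homogeneous time-resolved fluorescence format. Compounds competed with a Thalidomide-Re probe for GST-tagged wild-type human CRBN, which was labelled with a Eu anti-GST antibody.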

[2] = molecular target: T2, CDK4 (Homo sapiens, UniProt P11802); test: Western blot degradation of CDK4 (MDA-MB-231 Cell); assay type: cell-based; settings: Table D3
T2 construct: evaluate the effects of the compounds of the present disclosure on the expression of target proteins in cells; endogenous in cells; host or cells: MDA-MB-231
Protocol: (§1) Conventional Western blot assay was performed to evaluate the effects of the compounds of the present disclosure on the expression of target proteins in cells.
(§2) (1) Cell Seeding and Protein Harvesting: The selected cells were processed according to the cell seeding procedure and protein harvesting procedure in Table III-2. Table III-2 Cell Seeding and Protein Harvesting Procedures
(§3) (2) To the collected supernatant, 5X SDS sample loading buffer was added, followed by denaturation at 95°C for 5 minutes. The denatured samples were then separated by SDS-PAGE electrophoresis on a polyacrylamide gel. Proteins were transferred to a nitrocellulose membrane (0.45 µm NC membrane), blocked with blocking buffer at room temperature for 1 hour, and subjected to antibody incubation and development procedures according to the antibody manufacturer's instructions (Cell Signaling Technology).
(§4) Half-Maximal Degradation Concentration value (the drug concentration required for degrading proteins by 50%, abbreviated as DC50) reads method: comparing the grayscale values of Western blot bands from drug-treated samples with those from blank DMSO-treated controls, and identifying the drug concentration range at which the grayscale value is half that of the DMSO-treated control bands.
(§5) DC50 values can be calculated using ImageJ software to measure grayscale values of Western blot bands from drug-treated samples. The concentration-response curve is fitted to estimate the drug concentration corresponding to half the grayscale value.
(§6) Target protein remaining (%) refers to the percentage of target protein remaining in hPBMC cells after treatment with protein degrader compounds.
(§7) Calculation method for target protein remaining (%): Use ImageJ software to measure grayscale values of Western blot bands from drug (protein degrader)-treated samples. The grayscale value of drug-treated bands is divided by that of internal control protein bands, and the resulting quotient is normalized to obtain the relative percentage of remaining target protein after protein degrader treatment.
(§8) Target protein degradation rate (%) = 100% - target protein remaining (%).

[3] = molecular target: T3, CDK6 (Homo sapiens, UniProt Q00534); test: Western blot degradation of CDK6 (MDA-MB-231 Cell); assay type: cell-based; settings: Table D3
T3 construct: evaluate the effects of the compounds of the present disclosure on the expression of target proteins in cells; endogenous in cells; host or cells: MDA-MB-231
Protocol: as §1, §2, §3, §4, §5, §6, §7, §8

T1 sequence (Q96SW2 whole entry): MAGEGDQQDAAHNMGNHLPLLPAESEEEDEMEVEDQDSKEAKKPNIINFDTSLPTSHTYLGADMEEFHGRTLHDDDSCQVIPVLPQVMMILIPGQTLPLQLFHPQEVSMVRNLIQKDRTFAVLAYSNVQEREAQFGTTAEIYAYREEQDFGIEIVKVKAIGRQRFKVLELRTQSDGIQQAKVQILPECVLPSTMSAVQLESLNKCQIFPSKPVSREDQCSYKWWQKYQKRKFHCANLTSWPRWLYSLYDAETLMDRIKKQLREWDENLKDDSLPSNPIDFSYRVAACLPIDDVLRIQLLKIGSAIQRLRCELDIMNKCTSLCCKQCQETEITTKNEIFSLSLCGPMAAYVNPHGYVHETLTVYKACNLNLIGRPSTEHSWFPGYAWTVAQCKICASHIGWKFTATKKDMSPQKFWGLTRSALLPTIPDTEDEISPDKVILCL
T2 sequence (P11802 whole entry): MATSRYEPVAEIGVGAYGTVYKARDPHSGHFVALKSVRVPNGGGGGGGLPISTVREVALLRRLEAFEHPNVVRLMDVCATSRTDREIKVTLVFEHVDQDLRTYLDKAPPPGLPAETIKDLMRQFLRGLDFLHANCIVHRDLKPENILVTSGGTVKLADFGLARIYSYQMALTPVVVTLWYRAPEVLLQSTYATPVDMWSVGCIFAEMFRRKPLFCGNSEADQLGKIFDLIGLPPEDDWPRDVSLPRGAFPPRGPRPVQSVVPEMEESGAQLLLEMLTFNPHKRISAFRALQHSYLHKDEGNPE
T3 sequence (Q00534 whole entry): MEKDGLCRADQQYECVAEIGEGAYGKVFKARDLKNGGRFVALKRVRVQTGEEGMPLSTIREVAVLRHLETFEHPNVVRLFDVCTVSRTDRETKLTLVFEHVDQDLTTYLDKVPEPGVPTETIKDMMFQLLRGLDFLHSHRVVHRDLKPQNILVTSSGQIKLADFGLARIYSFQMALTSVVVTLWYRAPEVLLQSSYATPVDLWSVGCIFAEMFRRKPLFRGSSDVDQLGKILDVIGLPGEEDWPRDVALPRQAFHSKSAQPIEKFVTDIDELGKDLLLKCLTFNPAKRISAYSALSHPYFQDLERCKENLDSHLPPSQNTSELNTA

| Compound | inhibition at 0.5 µM [1] [%] | inhibition at 2 µM [1] [%] | Degradation of substrate protein CDK4 (substrate protein remaining %) [2] | Degradation of substrate protein CDK6 (substrate protein remaining %) [3] |
| --- | --- | --- | --- | --- |
| CN(C)C(=O)c1cc2cnc(Nc3ccc(N4CCN(Cc5cncc(N6CCC(=O)NC6=O)c5)CC4)cn3)nc2n1C1CCCC1 [GT-07476, 7-cyclopentyl-2-((5-(4-((5-(2,4-dioxotetrahydropyrimidin-1(2H)-yl)pyridin-3-yl)methyl)piperazin-1-yl)pyridin-2-yl)amino)-N,N-dimethyl-7H-pyrrolo[2,3-d]pyrimidine-6-carboxamide] | 30 to 40 | 60 to 80 | A (A is defined as 0% ≤ substrate protein remaining % ≤ 80%) | A (A is defined as 0% ≤ substrate protein remaining % ≤ 80%) |
| CN(C)C(=O)c1cc2cnc(Nc3ccc(N4CCN(Cc5ccc(C6CCC(=O)NC6=O)cn5)CC4)cn3)nc2n1C1CCCC1 (stereo not shown) [GT-07477, 7-cyclopentyl-2-((5-(4-((5-(2,6-dioxopiperidin-3-yl)pyridin-2-yl)methyl)piperazin-1-yl)pyridin-2-yl)amino)-N,N-dimethyl-7H-pyrrolo[2,3-d]pyrimidine-6-carboxamide] | 20 to 30 | 60 to 80 | A (A is defined as 0% ≤ substrate protein remaining % ≤ 80%) | A (A is defined as 0% ≤ substrate protein remaining % ≤ 80%) |
| CN(C)C(=O)c1cc2cnc(Nc3ccc(N4CCN(Cc5ccnc(C6CCC(=O)NC6=O)c5)CC4)cn3)nc2n1C1CCCC1 (stereo not shown) [GT-07478, 7-cyclopentyl-2-((5-(4-((2-(2,6-dioxopiperidin-3-yl)pyridin-4-yl)methyl)piperazin-1-yl)pyridin-2-yl)amino)-N,N-dimethyl-7H-pyrrolo[2,3-d]pyrimidine-6-carboxamide] |  |  | A (A is defined as 0% ≤ substrate protein remaining % ≤ 80%) | A (A is defined as 0% ≤ substrate protein remaining % ≤ 80%) |
| CN(C)C(=O)c1cc2cnc(Nc3ccc(N4CCN(Cc5cncc(C6CCC(=O)NC6=O)c5)CC4)cn3)nc2n1C1CCCC1 (stereo not shown) [GT-07479, 7-cyclopentyl-2-((5-(4-((5-(2,6-dioxopiperidin-3-yl)pyridin-3-yl)methyl)piperazin-1-yl)pyridin-2-yl)amino)-N,N-dimethyl-7H-pyrrolo[2,3-d]pyrimidine-6-carboxamide] | 53 to 60 | 80 to 100 | A (A is defined as 0% ≤ substrate protein remaining % ≤ 80%) | A (A is defined as 0% ≤ substrate protein remaining % ≤ 80%) |
| CC(=O)c1c(C)c2cnc(Nc3ccc(N4CCN(Cc5cc(N6CCC(=O)NC6=O)ncc5F)CC4)cn3)nc2n(C2CCCC2)c1=O [GT-07480, 1-(4-((4-(6-((6-acetyl-8-cyclopentyl-5-methyl-7-oxo-7,8-dihydropyrido[2,3-d]pyrimidin-2-yl)amino)pyridin-3-yl)piperazin-1-yl)methyl)-5-fluoropyridin-2-yl)dihydropyrimidine-2,4(1H,3H)-dione] |  |  | A (A is defined as 0% ≤ substrate protein remaining % ≤ 80%) | A (A is defined as 0% ≤ substrate protein remaining % ≤ 80%) |
| CC(=O)c1c(C)c2cnc(Nc3ccc(N4CCN(Cc5ccnc(N6CCC(=O)NC6=O)c5)CC4)cn3)nc2n(C2CCCC2)c1=O [GT-07481, 1-(4-((4-(6-((6-acetyl-8-cyclopentyl-5-methyl-7-oxo-7,8-dihydropyrido[2,3-d]pyrimidin-2-yl)amino)pyridin-3-yl)piperazin-1-yl)methyl)pyridin-2-yl)dihydropyrimidine-2,4(1H,3H)-dione] |  |  | A (A is defined as 0% ≤ substrate protein remaining % ≤ 80%) | A (A is defined as 0% ≤ substrate protein remaining % ≤ 80%) |
| CC(=O)c1c(C)c2cnc(Nc3ccc(N4CCN(Cc5cnc(N6CCC(=O)NC6=O)cn5)CC4)cn3)nc2n(C2CCCC2)c1=O [GT-07827, 1-(5-((4-(6-((6-acetyl-8-cyclopentyl-5-methyl-7-oxo-7,8-dihydropyrido[2,3-d]pyrimidin-2-yl)amino)pyridin-3-yl)piperazin-1-yl)methyl)pyrazin-2-yl)dihydropyrimidine-2,4(1H,3H)-dione] |  |  | A (A is defined as 0% ≤ substrate protein remaining % ≤ 80%) | A (A is defined as 0% ≤ substrate protein remaining % ≤ 80%) |
| CN(C)C(=O)c1cc2cnc(Nc3ccc(N4CCN(Cc5cc(N6CCC(=O)NC6=O)cnc5F)CC4)cn3)nc2n1C1CCCC1 [GT-07830, 7-cyclopentyl-2-((5-(4-((5-(2,4-dioxotetrahydropyrimidin-1(2H)-yl)-2-fluoropyridin-3-yl)methyl)piperazin-1-yl)pyridin-2-yl)amino)-N,N-dimethyl-7H-pyrrolo[2,3-d]pyrimidine-6-carboxamide] | 30 to 40 | 60 to 80 | A (A is defined as 0% ≤ substrate protein remaining % ≤ 80%) | A (A is defined as 0% ≤ substrate protein remaining % ≤ 80%) |
| CN(C)C(=O)c1cc2cnc(Nc3ccc(N4CCN(Cc5cnc(N6CCC(=O)NC6=O)cn5)CC4)cn3)nc2n1C1CCCC1 [GT-07831, 7-cyclopentyl-2-((5-(4-((5-(2,4-dioxotetrahydropyrimidin-1(2H)-yl)pyrazin-2-yl)methyl)piperazin-1-yl)pyridin-2-yl)amino)-N,N-dimethyl-7H-pyrrolo[2,3-d]pyrimidine-6-carboxamide] |  |  | A (A is defined as 0% ≤ substrate protein remaining % ≤ 80%) | A (A is defined as 0% ≤ substrate protein remaining % ≤ 80%) |
| CC(=O)c1c(C)c2cnc(Nc3ccc(N4CCN(Cc5cc(N6CCC(=O)NC6=O)cnc5F)CC4)cn3)nc2n(C2CCCC2)c1=O [GT-07832, 1-(5-((4-(6-((6-acetyl-8-cyclopentyl-5-methyl-7-oxo-7,8-dihydropyrido[2,3-d]pyrimidin-2-yl)amino)pyridin-3-yl)piperazin-1-yl)methyl)-6-fluoropyridin-3-yl)dihydropyrimidine-2,4(1H,3H)-dione] |  |  | A (A is defined as 0% ≤ substrate protein remaining % ≤ 80%) | A (A is defined as 0% ≤ substrate protein remaining % ≤ 80%) |
